For this assay, the target named is glucose-6-phosphate dehydrogenase-6-phosphogluconolactonase (Plasmodium falciparum 3D7). Kind of assay: PfG6PD enzyme inhibitors, kinetic NADPH readout, dose response, orthogonal assay, biochemical, kinetic NADPH detection (AID 540269). To be noted: purified PfG6PD-6PGL.

Calls of active or inactive are those of the source. No rule for the calls is given here. Bounds are passed on as bounds.

`CCC(=O)OCOc1ccc(/C=C2/CCC(CN(C)C)C2=O)cc1` (stereo not drawn): the IC50 (as a rule, the concentration that gives 50% inhibition) is 36.4 µM. Regarding `COc1cc(CNc2ccc3[nH]c(=O)[nH]c3c2)ccc1OCc1ccccc1`, the IC50 is > 80 µM (inactive). As for `O=C1C=C(NCCc2cc(Br)c(O)c(Br)c2)C(=O)c2ncccc21`, the IC50 is > 80 µM (inactive). As for `Cc1ccccc1OCC(=O)NCC(=O)OCC(=O)c1ccc([N+](=O)[O-])cc1`, the figure is 67.4 µM. For `COc1cc(N=c2ssnc2Cl)c(OC)cc1Cl` the value was 36.8 µM; for `Nc1[nH]c(=O)[nH]c(=O)c1N=Cc1ccccc1`, 20.6 µM; for `O=C(Nc1ccc(N2CCN(C(=O)c3ccco3)CC2)c(Cl)c1)c1cc2ccccc2o1`, 53.8 µM.

As for `CC1(OC(=O)C2CCCC2)C(=O)C=C2C=C(c3ccsc3)N(CCc3c[nH]c4ccccc34)C=C2C1=O` (stereo not drawn), the IC50 is > 80 µM (inactive). As for `CC(=O)Nc1cc([N+](=O)[O-])ccc1OCc1ccccc1`, the figure is > 80 µM (inactive).

For the compound `COc1ccc(-n2c(=S)[nH]c3c(sc(=S)n3-c3ccccc3)c2=O)c(OC)c1`, the IC50 is > 80 µM (inactive). With `CN(C)c1ncc(C2=C(Cl)C(=O)C(N3CCCC3)=C(Cl)C2=O)s1`, the IC50 was 35.6 µM.

As to `Cc1nnc(N/N=C/c2ccc(-c3ccccc3F)o2)n1N`, the IC50 was 32.1 µM.

Consider `CCOc1ccccc1C=NNC(=O)CCCCC(=O)NN=Cc1ccccc1OCC`, for which the IC50 is > 80 µM (inactive).

Turning to `CCOC(=O)Cc1csc(-n2sc3ccccc3c2=O)n1`, the IC50 was 31.3 µM.

`Cn1c(=O)c2[nH]c(-c3ccccc3)c(O)c2n(C)c1=O`: the IC50 was > 80 µM (inactive). For the compound `O=C(Nc1ccccn1)c1sc2cc([N+](=O)[O-])ccc2c1Cl`, the IC50 is > 80 µM (inactive). Regarding `Cc1ccc(SC2=C(Sc3ccc(C)cc3)C(=O)c3ccccc3C2=O)cc1`, the IC50 was 34.7 µM.

Regarding `O=C(Nc1ccccc1C(=O)N/N=C/c1ccco1)c1ccccc1Cl`, the IC50 is > 80 µM (inactive). As for `Cc1ccc(C(=O)/C=C/C(=O)c2ccc(C)cc2)cc1`, the IC50 is > 80 µM (inactive). As for `Cc1cc(C)c2c(=O)n(CC(=O)NC3CCCC3)sc2n1`, the figure is > 80 µM (inactive). As for `Cc1cccc(-n2c(=S)[nH]c3sc4c(c3c2=O)CCc2ccccc2-4)c1`, the figure is 40.9 µM; as for `O=C1C=CC(=O)N1CCCCCCCCCCN1C(=O)C=CC1=O`, > 80 µM (inactive); as for `O=C(CSc1nc2cc(Cl)ccc2s1)c1ccco1`, > 80 µM (inactive). For the compound `CN(C)Cc1cc(O)c(CN(C)C)cc1O`, the 50% inhibitory concentration (IC50) was 25.6 µM. For `[O-][N+](=Cc1ccccc1)c1ccc(Cl)cc1` the value was > 80 µM (inactive). In the case of `CC1(C)CC2(CC(c3ccccc3F)c3ccc(O)c(O)c3O2)NC(=S)N1` (stereo not drawn), the IC50 is 45.8 µM. As for `COc1cc(NCCCn2cnc3c(OCc4ccccc4)ncnc32)cc(OC)c1OC`, the IC50 is > 80 µM (inactive). On to `Cc1ccc(S(=O)(=O)SCCCSS(=O)(=O)c2ccc(C)cc2)cc1`, for which the IC50 was 35.6 µM. As for `Cc1ccc(S(=O)(=O)Nc2nc(C)c(C(=O)N/N=C/c3ccccc3)s2)cc1`, the figure is 31 µM; as for `Cc1ccc(S(=O)(=O)N(C(=O)c2ccncc2)c2ccc(OC(=O)c3ccncc3)c3ccccc23)cc1`, 55.7 µM. As for `COc1ccc2c(c1)c(=Cc1ccc(N(C)C)cc1)c1cc(-c3ccccc3)[n+](C)n12`, the figure is 64.4 µM; as for `O=c1c2cc(C(F)(F)F)ccc2sn1-c1ccccc1`, 20.3 µM; as for `COc1cccc(C(=O)Nc2nnc(C(C)C)s2)c1`, 21.4 µM. As for `COc1ccc(C(=O)c2c(C(F)(F)F)oc3c2C(=O)c2ccccc2C3=O)cc1`, the figure is > 80 µM (inactive); as for `CCCCC1C(=O)N(c2ccccc2)N(c2ccc(O)cc2)C1=O` (stereo not drawn), > 80 µM (inactive). As to `CCN1CCN(c2nc(C)nc3c2sc(=S)n3C)CC1`, the IC50 is > 80 µM (inactive). As to `N#CC(C#N)=C1C=CC=CN1/C(=C\c1ccccc1Cl)C(=O)c1ccccc1`, the IC50 is > 80 µM (inactive). As for `Cc1ccc(Cl)cc1NC1=C/C(=N\S(=O)(=O)c2cccs2)c2ccccc2C1=O`, the figure is > 80 µM (inactive); as for `Clc1ccc2nc(-c3ccc(Br)s3)cn2c1`, > 80 µM (inactive); as for `Cc1ccc(NC(=O)c2cc(N3C(=O)C=CC3=O)ccc2N2CCOCC2)cc1`, > 80 µM (inactive).

With `O=C(O)CSc1cc(NS(=O)(=O)c2cccc([N+](=O)[O-])c2)c2ccccc2c1O`, the IC50 was > 80 µM (inactive).

Regarding `CCCN1CCc2cccc3c2[C@H]1Cc1ccc(O)c(O)c1-3`, the IC50 is > 80 µM (inactive). For `O=c1c2cc(F)ccc2sn1-c1ccccc1Cl` the value was 12.7 µM; for `O=C(CBr)c1ccc([N+](=O)[O-])c(CS(=O)(=O)c2ccc(Cl)cc2)c1`, > 80 µM (inactive). As for `Cc1nc2c(o1)C(=O)c1ccccc1C2=Nc1ccccc1`, the figure is > 80 µM (inactive); as for `OCCN1CCN(C(=S)c2ccc(Cl)c(Cl)c2)CC1`, > 80 µM (inactive); as for `CN1CCc2cc(O)cc3c2[C@H]1Cc1ccc(O)c(O)c1-3`, > 80 µM (inactive). On to `COCCNC(=S)Nc1ccc(N2CCOCC2)c(S(=O)(=O)Nc2ccc(Cl)cc2)c1`, for which the IC50 was > 80 µM (inactive). For `Oc1ccc(-c2cn3c(n2)SCC3)cc1O`, the IC50 was 46.5 µM. As for `Cc1cc(C)c2c(=O)n(CC(=O)Nc3ccc(Cl)cc3)sc2n1`, the figure is > 80 µM (inactive). Take `O=C(CSc1nc2ccc(Cl)cc2[nH]1)NC1CCCc2ccccc21` (stereo not drawn): the IC50 was > 80 µM (inactive). For `O=C(CCC(=O)OCC(=O)c1ccc([N+](=O)[O-])cc1)Nc1ccccc1Cl` the value was > 80 µM (inactive); for `NC(=O)N/N=C/c1ccc(-n2nncc2-c2ccc(Cl)cc2)cc1`, > 80 µM (inactive); for `CCOC(=O)c1c2ccc(OCC(=O)NN)cc2n2ccccc12`, 9.4 µM.

As to `CN(C)c1ccc2nc3ccc(=O)cc-3sc2c1`, the IC50 is > 80 µM (inactive). For `COC(=O)CCC(=O)OC1(C)C(=O)C2=CN(C3CC3)C(c3ccc(OC)cc3)=CC2=C(Br)C1=O` (stereo not drawn), the IC50 was 45.8 µM. Consider `c1ccc(SSc2ccccn2)nc1`, for which the IC50 is 64.1 µM. For `CN1C(=O)CSc2ccc(NC(=O)N3CCc4ccccc43)cc21` the value was > 80 µM (inactive); for `COc1cccc(C(=O)Nc2nnc(S(=O)(=O)N(C)Cc3ccccc3)s2)c1`, 18.6 µM.

As for `CCOc1ccc(S(=O)(=O)Nc2cc(SCC(=O)O)c(O)c3ccccc23)cc1`, the IC50 is 48.2 µM.

On to `O=C1C=CC2=C3c4cc(O)c(O)cc4CC3(O)COC2=C1O` (stereo not drawn), for which the IC50 was 37.8 µM. As for `CCn1c2ccccc2c2nc3cc(S(=O)(=O)N4CCOCC4)ccc3nc21`, the figure is > 80 µM (inactive). For the compound `CCCCCCCCSC1=CC(=O)C(OC)=C(OC)C1=O`, the IC50 is > 80 µM (inactive). Take `O=C(CNc1ccc2c(c1)OCO2)N/N=C\c1cn(Cc2ccccc2)c2ccccc12`: the IC50 is > 80 µM (inactive). As for `COc1ccc(C(=O)/C=C2\Sc3ccccc3N2C)cc1`, the figure is 43.4 µM. On to `CCOC(=O)C1CCCN(C(=O)Cn2sc3nc(C)cc(C)c3c2=O)C1` (stereo not drawn), for which the half-maximal inhibitory concentration (IC50) is 50.7 µM.

`O=c1c2ccccc2sn1-c1ccc(S(=O)(=O)N2CCCC2)cc1`: the IC50 was 28.4 µM. As to `Cc1cc(SCC(=O)N/N=C/c2ccco2)nc2ccccc12`, the IC50 is > 80 µM (inactive). As for `COc1cccc2nc3cc(C)c(C)cc3nc12`, the figure is > 80 µM (inactive); as for `Cc1nc(COC(=O)c2cc(O)c3ccccc3c2O)cs1`, > 80 µM (inactive); as for `O=C1/C(=C\c2ccc([N+](=O)[O-])cc2)CS(=O)(=O)C/C1=C/c1ccc([N+](=O)[O-])cc1`, > 80 µM (inactive).

Turning to `CCn1c(N)c(C(=O)NC)sc1=S`, the IC50 is 26.3 µM. As for `Cn1c(-c2sccc2OCc2cccc(C(F)(F)F)c2)n[nH]c1=S`, the IC50 was 7.3 µM. For `Cc1cccc(C(=O)Nc2nnc(S(=O)(=O)N3CCCCCC3)s2)c1` the value was 16.9 µM; for `O=C(COc1cccc2ccccc12)Nc1ccc(Cl)cc1C(=O)O`, 33.7 µM. As for `CCN(CC)CCNC(=O)CCCCn1c(=S)[nH]c2c([nH]c3ccc(OC)cc32)c1=O`, the figure is 15.7 µM; as for `O=c1c2ccccc2sn1-c1ccc(Cl)cc1`, 17.1 µM; as for `O=C(COC(=O)c1ccc2c(c1[N+](=O)[O-])C(=O)c1ccccc1C2=O)NC1CC1`, > 80 µM (inactive). With `CCC1(CC)Cc2ccccc2C(N)=C1C#N`, the IC50 was > 80 µM (inactive). On to `Cn1c(=O)[nH]c(=O)c2c1nc([N+](=O)[O-])n2Cc1ccccc1`, for which the IC50 is > 80 µM (inactive).

As for `O=C1C(=Cc2cccc(O)c2O)SC(=S)N1CCCN1CCOCC1`, the IC50 was 28.2 µM. For `Cc1ccc(-c2csc(NC(=O)c3ccccc3F)c2C(=O)O)cc1` the value was 53.7 µM; for `O=C(CCc1ccc(O)c(O)c1)N/N=C/c1cc2c(cc1[N+](=O)[O-])OCO2`, 16.6 µM. As for `Cc1cccc(C2(c3cccc(C)c3)CC2C(=O)Nc2ccc([N+](=O)[O-])cc2O)c1` (stereo not drawn), the figure is > 80 µM (inactive); as for `O=C(Nc1nnc(S(=O)(=O)N2CCOCC2)s1)c1ccc(F)cc1`, 56.9 µM. For `CN1CCN(C(=S)c2ccc([N+](=O)[O-])cc2)CC1` the value was > 80 µM (inactive); for `CCOC(=O)CSc1nnc(NC(=O)c2cccc([N+](=O)[O-])c2)s1`, > 80 µM (inactive). Turning to `COc1ccc(NC(C)C(=O)N/N=C/c2cc(Br)ccc2OC)cc1` (stereo not drawn), the IC50 is > 80 µM (inactive). On to `NC1CCc2cc(O)c(O)cc2C1` (stereo not drawn), for which the IC50 is 34.5 µM. For `O=C1C=CC(=O)N1c1ccc(-c2nc3ccccc3o2)cc1` the value was > 80 µM (inactive); for `CN1CCc2cccc3c2[C@@H]1Cc1ccc(O)c(O)c1-3`, > 80 µM (inactive). As for `Cc1ccc(-c2nc(N)s[n+]2-c2ccccc2)cc1`, the figure is > 80 µM (inactive).

On to `ClC(Cl)(c1nnnn1-c1ccccc1)c1nnnn1-c1ccccc1`, for which the IC50 was 61.2 µM.

For the origin of these results see PubChem BioAssay AID540269 (Sanford-Burnham Center for Chemical Genomics, 2011).
